Measured values taken from patent publication US4554274A, “Nb Quaternary derivatives of ajmaline and isoajmaline, methods and intermediate products in the manufacture of their derivatives and method of using same and pharmaceutical compositions thereof” (priority 1979, dated 1985).
Structures can show the parent of a compound that is named as a salt. Where two headings read alike, the source gives them in different places.

Tests used:
isolated left atria = experiment: functional refractory period (FRP) and contraction force (CF) in isolated left atria, double stimulus method of Govier; parameters: species or system female guinea pigs; conditions: for ratio between contraction force-reducing dose and functional refractory period-prolonging dose: CF/FRP, indication of therapeutic range, 18 min; for EC (FRP prolonged to 125%) / IC25: Cavia porcellus, 0.3 h, isolated left atria of guinea pig, 18 minutes after application; for EC (FRP prolonged to 125%): read-out: concentration prolonging functional refractory period (FRP) to 125% of starting value; for IC25: read-out: concentration reducing contraction force (CF) to 75% of starting value
Experimental: The prolongation of the functional refractory period (FRP) and the contraction force (CF) in the isolated left atria of female guinea pigs (albinopirbright-white guinea pigs, body weight range 300-400 g) are determined according to the double stimulus method of Govier (see W. C. Govier, J. Pharmakol, Exp. Ther. 148 (1965) pp. 100-105). The concentrations which are given in the table below are the concentrations in […] which 18 minutes after application leads to a prolongation of the functional refractory period to 125% or respectively to a reduction of the contraction force to 75% of the starting value. Furthermore the ratio between contraction force-reducing dose and functional refractory period-prolonging dose is given. This ratio is an indication of the therapeutic range of the antiarrhythmic effect on the isolated organ (see K. Greef, Verh. Dtsch. Ges. Kreislaufforsch. 35 (1969) pp. 88-97).

male NMRI-mice [1] = experiment: minimum symptom dose (Campbell and Richter); assay type: in vivo; parameters: key: (*): symptoms already indicating toxic area; conditions: i.p., changes in behavior in 2 out of 3 mice
Experimental: The minimum symptom dose is determined in male NMRI-mice (body weight range 18-22 g) according to the procedure of Campbell and Richter (see D. E. S. Campbell and W. Richter, Acta Pharmacol. Toxicol. 25 (1967), pp. 345-363). The minimum symptom dose is defined as that dose in μmol/kg which after i.p. administration causes changes in behavior in 2 out of 3 mice. The minimum symptom dose is a measure for evaluations undesirable side effects.

[2] = acute toxicity (LD50) in mice; assay type: in vivo; conditions: mouse, in vivo, male NMRI-mice, mortality on 7th day
Experimental: (§1) The acute toxicity of the compounds is determined in male NMRI-mice (body weight range 18-22 g) after oral (p.o.) and intraperitonal (i.p.) administration. The LD50 is defined as that dose in μmol/kg which causes a 50% mortality rate of the test animals on the 7th day after application. The calculation of the LD50 is carried out by probitanalysis (see L. Cavalli-Sforza, Grundbegriffe der Biometric, Gustav Fischer Verlag Stuttgart (1964)).

[3] = system: male Wista rats (aconitine); experiment: aconitine infusion in rats, heart rhythm disruption (Raschak); assay type: in vivo; conditions: 1/20th of the LD50, concurrent aconitine infusion, time difference vs control
Experimental: To determine the influence of the active ingredient on male Wista rats (weighing 280 to 350 g), infusion with aconitine according to the method of Raschak is carried out (M. Raschak, Arzneim. Forschung (Drug Research) 25 (4) (1975) pp. 639-641). The results are given as the difference (that is, the difference in time as Δ%) between the active substance and a control sample in bringing about a disruption of heart rhythms (extrasystolic (ES), ventricular tachicardiea (VT), chamber flutter (KF)). In the control sample the active ingredient is replaced by a vehicle such as isotonic NaCl-solution or solution medium. The administration of the active ingredient is in a dosage of 1/20th of the LD50 and a constant concurrent infusion per unit of time of aconitine.

male NMRI-mice [4] = experiment: acute toxicity (LD50) in mice; assay type: in vivo; conditions: i.p., mortality on 7th day
Experimental: as §1

SMILES	ratio between contraction force-reducing dose and functional refractory period-prolonging dose (isolated left atria)	EC (FRP prolonged to 125%) (isolated left atria)	IC25 (isolated left atria)	Min. Symptom-dose (male NMRI-mice [1])	LD50 at 168 h ([2]; ip, i.p., read-out: LD50 i.p.)	LD50 at 168 h ([2]; po, p.o., read-out: LD50 p.o.)	Aconitin-Rat, ES (extrasystolic), Δ % [3]	Aconitin-Rat, KF (chamber flutter), Δ % [3]	Aconitin-Rat, VT (ventricular tachycardia), Δ % [3]	LD50 i.p. (male NMRI-mice [4])
CCC1C2CC3C4N(C)c5ccc(Br)cc5C45CC(C2C5O)[N+]3(CCN2CCCC2)C1O (stereo not drawn) [Example 8.b, Nb-(2-(1-pyrrolidinyl)ethyl)-10-bromoisoajmalinium bishydrogen tartrate]	2.3	0.9 µM	2000 nM	31 µmol/kg	115 µmol/kg	394 µmol/kg	+212%	+129%	> +149%	
CCC1C2CC3C4N(C)c5ccc(Br)cc5C45CC(C2C5O)[N+]3(CCN2CCCCC2)C1O (stereo not drawn) [Example 9.b, Nb-(2-(1-piperidinyl)ethyl)-10-bromoisoajmalinium bishydrogen tartrate]	0.7	2.3 µM	1400 nM	31 µmol/kg	60 µmol/kg	148 µmol/kg	+151%	+95%	+52%	
CCC1C2CC3C4N(C)c5ccc(Br)cc5C45CC(C2C5O)[N+]3(CCN2CCOCC2)C1O (stereo not drawn) [Example 10, Nb-[2-(4-morpholinyl)ethyl]-10-bromoisoajmalinium-chloride]	12.9	0.2 µM	2100 nM	22 µmol/kg	45 µmol/kg	470 µmol/kg	+67%	+43%	+69%	
CCC1C2CC3C4N(C)c5ccc(Br)cc5C45CC(C2C5O)[N+]3(C)C1O (stereo not drawn) [Example 11.b, Nb-methyl-10-bromoisoajmalinium hydrogen tartrate]	1.3	7.2 µM	9000 nM	88 µmol/kg	190 µmol/kg	1290 µmol/kg	+85%	+52%	+73%	
CCC1C2CC3C4N(C)c5ccc(Br)cc5C45CC(C2C5O)[N+]3(CC)C1O (stereo not drawn) [Example 12.b, Nb-ethyl-10-bromo-isoajmalinium hydrogen tartrate]	0.9	1.5 µM	1400 nM	21 µmol/kg	122 µmol/kg	1430 µmol/kg	+52%	+39%	+55%	
CCC[N+]12C(O)C(CC)C3CC1C1N(C)c4ccc(Br)cc4C14CC2C3C4O (stereo not drawn) [Example 13.b, Nb-propyl-10-bromoisoajmalinium hydrogen tartrate]	2.4	0.6 µM	1500 nM	42 µmol/kg		437 µmol/kg	+110%	+110%	+130%	
CCCC[N+]12C(O)C(CC)C3CC1C1N(C)c4ccc(Br)cc4C14CC2C3C4O (stereo not drawn) [Example 14.b, Nb-butyl-10-bromoisoajmalinium hydrogen tartrate]	0.7	2 µM	1500 nM	20 µmol/kg	76 µmol/kg	198 µmol/kg	+80%	+88%	+87%	
CCCCCCCCCC[N+]12C(O)C(CC)C3CC1C1N(C)c4ccc(Br)cc4C14CC2C3C4O (stereo not drawn) [Example 15.b, Nb-decyl-10-bromoisoajmalinium hydrogen tartrate]	4.6	24.8 µM	113000 nM	287 µmol/kg	72 µmol/kg	> 1440 µmol/kg	n.s.	n.s.	n.s.	
CCC1C2CC3C4N(C)c5ccc(Br)cc5C45CC(C2C5O)[N+]3(Cc2ccccc2)C1O (stereo not drawn) [Example 16.b, Nb-benzyl-10-bromoisoajmalinium hydrogen tartrate]	6.1	2.7 µM	16600 nM	(*)	483 µmol/kg	2280 µmol/kg	+36%	+31%	+30%	
CCC1C2CC3C4N(C)c5ccc(Br)cc5C45CC(C2C5O)[N+]3(CCCN(CC)CC)C1O (stereo not drawn) [Example 19.b, Nb-diethylaminopropyl-10-bromoisoajmalinium bishydrogen tartrate]	0.5	4.4 µM	2000 nM	31 µmol/kg	122 µmol/kg	686 µmol/kg	+220%	+158%	+180%	
CCC1C2CC3C4N(C)c5ccc(Br)cc5C45CC(C2C5O)[N+]3(CC(O)c2ccccc2)C1O (stereo not drawn) [Example 21, Nb-(2-hydroxy-2-phenylethyl)-10-bromoisoajmalinium hydrogen tartrate]	0.8	3.8 µM	3200 nM		250 µmol/kg	2180 µmol/kg	+89%	+72%	+92%	
CCC1C2CC3C4N(C)c5ccc(Br)cc5C45CC(C2C5O)[N+]3(CC(O)CN2CCCCC2)C1O (stereo not drawn) [Example 22, Nb-(2-hydroxy-3-(1-piperidinyl)propyl)-10-bromoisoajmalinium hydrogen tartrate]		8.1 µM	3400 nM	72 µmol/kg		550 µmol/kg	+154%	+110%	+121%	168 µmol/kg
CCC[N+]12C(O)C(CC)C3CC1C1N(C)c4ccccc4C14CC2C3C4O (stereo not drawn) [Neo-Gilurytmal, Nb -propyl ajmalinium hydrogen tartrate, reference compound]		1.8 µM	260 nM	12 µmol/kg			+86%	+50%	+80%	
